Test results reported in ChEMBL document CHEMBL5380842, “Discovery of a Potent and Selective CCR8 Small Molecular Antagonist IPG7236 for the Treatment of Cancer” (J Med Chem, 2023).
Values after ≈ are worked out from the molar mass of the structure shown.

Experiments:
[1] = Stability in mouse hepatocytes assessed as half life; format: ADME, cell-based, Hepatocyte
[2] = Stability in dog liver microsomes assessed as half life; format: ADME, Canis lupus familiaris, Microsome
[3] = Volume of distribution at steady state in Sprague-Dawley rat at 1 mg/kg, iv; format: ADME, organism-based; settings: in vivo, read-out: Vdss
[4] = Tmax in Beagle dog at 10 mg/kg, po; format: ADME, organism-based, Canis lupus familiaris; settings: in vivo
[5] = AUClast in Sprague-Dawley rat at 50 mg/kg, po; format: ADME, organism-based; set-up: dose 50 mg/kg, route po; settings: in vivo
MDA-MB-231 [6] = assay: Antitumor activity against human MDA-MB-231 cells xenografted in humanized NCG mouse assessed as […] in tumor-infiltrating CD8+ T cells administered intragastrically twice everyday; format: functional, cell-based; settings: dose 2-50 mg/kg, route ig
Cytochrome P450 2C19 = Cytochrome P450 2C19 (Homo sapiens, UniProt P33261); assay: Inhibition of CYP2C19 (unknown origin); format: ADME
MDA-MB-231 [7] = assay: Synergistic antitumor activity against human MDA-MB-231 cells xenografted in humanized NCG mouse assessed as tumor growth inhibition at 10 mg/kg, po bid in presence of PD-1 antibody relative to control; format: functional; settings: read-out: TGI
MDA-MB-231 [8] = assay: Antitumor activity against human MDA-MB-231 cells xenografted in humanized NCG mouse assessed as decrease in tumor-infiltrating Treg cells administered intragastrically twice everyday; format: functional, cell-based; settings: dose 2-50 mg/kg, route ig
[9] = Unbound fraction in human plasma; format: ADME, cell-free
[10] = Tmax in Cynomolgous monkey at 50 mg/kg, po; format: ADME, organism-based, Macaca fascicularis; settings: cynomolgus monkey, in vivo
[11] = Clearance in Sprague-Dawley rat at 1 mg/kg, iv; format: ADME, organism-based; settings: in vivo
[12] = Clearance in Cynomolgous monkey at 1 mg/kg, iv; format: ADME, organism-based, Macaca fascicularis; settings: cynomolgus monkey, in vivo
Cytochrome P450 2B6 = biological target: T1, Cytochrome P450 2B6 (Homo sapiens, UniProt P20813); assay: Inhibition of CYP2B6 (unknown origin); format: ADME
T1 sequence (P20813 whole entry): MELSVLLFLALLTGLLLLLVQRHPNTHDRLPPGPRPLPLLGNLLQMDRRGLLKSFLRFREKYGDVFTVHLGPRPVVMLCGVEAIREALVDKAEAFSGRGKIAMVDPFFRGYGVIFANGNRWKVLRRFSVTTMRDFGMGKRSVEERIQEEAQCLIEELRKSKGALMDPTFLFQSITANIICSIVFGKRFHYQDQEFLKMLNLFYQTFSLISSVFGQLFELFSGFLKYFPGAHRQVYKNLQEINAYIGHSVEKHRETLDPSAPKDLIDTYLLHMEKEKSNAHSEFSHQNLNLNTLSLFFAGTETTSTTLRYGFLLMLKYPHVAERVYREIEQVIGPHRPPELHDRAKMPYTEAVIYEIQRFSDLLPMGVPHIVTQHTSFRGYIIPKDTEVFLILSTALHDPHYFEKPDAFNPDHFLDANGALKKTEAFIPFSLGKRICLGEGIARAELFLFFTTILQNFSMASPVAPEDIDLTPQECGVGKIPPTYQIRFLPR

[13] = Volume of distribution at steady state in ICR mouse at 1 mg/kg, iv; format: ADME, organism-based; settings: in vivo, read-out: Vdss
[14] = Oral bioavailability in ICR mouse at 50 mg/kg; format: ADME, organism-based; settings: in vivo
[15] = Toxicity in humanized NCG mouse xenografted with human MDA-MB-231 cells administered intragastrically twice everyday; settings: in vivo, po
[16] = Cytotoxicity against human primary hepatocytes; format: toxicity, cell-based, Hepatocyte
[17] = AUClast in ICR mouse at 1 mg/kg, iv; format: ADME, organism-based; set-up: dose 1 mg/kg, route iv; settings: in vivo
[18] = Solubility of compound in PBS at pH 7.4 incubated for 2 hrs by LC-MS/MS analysis; format: physicochemical
[19] = AUClast in Cynomolgous monkey at 50 mg/kg, po; format: ADME, organism-based, Macaca fascicularis; set-up: dose 50 mg/kg, route po; settings: cynomolgus monkey, in vivo
[20] = Oral bioavailability in Beagle dog at 10 mg/kg; format: ADME, organism-based, Canis lupus familiaris; settings: in vivo
Cytochrome P450 3A4 = Cytochrome P450 3A4 (Homo sapiens, UniProt P08684); assay: Inhibition of CYP3A4-M (unknown origin); format: ADME
Cytochrome P450 1A2 = biological target: T2, Cytochrome P450 1A2 (Homo sapiens, UniProt P05177); assay: Inhibition of CYP1A2 (unknown origin); format: ADME
T2 sequence (P05177 whole entry): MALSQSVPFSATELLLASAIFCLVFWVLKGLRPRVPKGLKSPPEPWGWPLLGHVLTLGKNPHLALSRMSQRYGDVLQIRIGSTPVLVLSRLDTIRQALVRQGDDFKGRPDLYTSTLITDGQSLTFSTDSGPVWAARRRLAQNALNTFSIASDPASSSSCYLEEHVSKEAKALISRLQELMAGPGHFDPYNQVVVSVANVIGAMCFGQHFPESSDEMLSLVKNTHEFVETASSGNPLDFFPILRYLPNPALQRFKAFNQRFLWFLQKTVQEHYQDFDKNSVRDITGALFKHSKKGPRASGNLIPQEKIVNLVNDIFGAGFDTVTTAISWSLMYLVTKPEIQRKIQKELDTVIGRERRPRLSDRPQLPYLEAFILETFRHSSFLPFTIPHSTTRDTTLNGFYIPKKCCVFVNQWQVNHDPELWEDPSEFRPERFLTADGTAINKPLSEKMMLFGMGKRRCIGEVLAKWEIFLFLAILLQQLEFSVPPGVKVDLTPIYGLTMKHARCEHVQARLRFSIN

[21] = AUClast in ICR mouse at 50 mg/kg, po; format: ADME, organism-based; set-up: dose 50 mg/kg, route po; settings: in vivo
[22] = Tmax in Sprague-Dawley rat at 50 mg/kg, po; format: ADME, organism-based; settings: in vivo
[23] = Stability in rat liver microsomes assessed as half life; format: ADME, Microsome
[24] = Oral bioavailability in Sprague-Dawley rat at 50 mg/kg; format: ADME, organism-based; settings: in vivo
MDA-MB-231 [25] = assay: Antitumor activity against human MDA-MB-231 cells xenografted in humanized NCG mouse assessed as tumor growth inhibition at 50 mg/kg, IG bid measured after 22 days relative to control; format: functional; settings: MDA-MB-231, po, 528 h, time 22 day, read-out: TGI
Cytochrome P450 2C8 = biological target: T3, Cytochrome P450 2C8 (Homo sapiens, UniProt P10632); assay: Inhibition of CYP2C8 (unknown origin); format: ADME
T3 sequence (P10632 whole entry): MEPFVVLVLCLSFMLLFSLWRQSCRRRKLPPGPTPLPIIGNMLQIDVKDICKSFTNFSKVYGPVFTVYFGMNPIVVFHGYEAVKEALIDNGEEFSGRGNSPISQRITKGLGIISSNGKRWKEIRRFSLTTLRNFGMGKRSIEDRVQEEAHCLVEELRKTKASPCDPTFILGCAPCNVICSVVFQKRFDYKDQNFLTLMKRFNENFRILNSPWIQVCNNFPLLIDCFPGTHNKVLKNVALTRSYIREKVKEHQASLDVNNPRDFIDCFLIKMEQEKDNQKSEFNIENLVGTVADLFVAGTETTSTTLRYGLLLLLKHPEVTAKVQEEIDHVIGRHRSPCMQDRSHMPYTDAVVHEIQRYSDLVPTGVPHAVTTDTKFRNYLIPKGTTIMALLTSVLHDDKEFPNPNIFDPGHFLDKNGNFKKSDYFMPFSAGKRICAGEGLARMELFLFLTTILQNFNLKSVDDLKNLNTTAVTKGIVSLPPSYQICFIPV

[26] = Stability in mouse liver microsomes assessed as half life; format: ADME, Microsome
[27] = Apparent permeability of compound across basal to apical side in human Caco2 cells at 10 uM incubated for 120 mins by LC-MS/MS analysis; settings: Caco-2

Cytochrome P450 2C19, sequence (P33261 whole entry): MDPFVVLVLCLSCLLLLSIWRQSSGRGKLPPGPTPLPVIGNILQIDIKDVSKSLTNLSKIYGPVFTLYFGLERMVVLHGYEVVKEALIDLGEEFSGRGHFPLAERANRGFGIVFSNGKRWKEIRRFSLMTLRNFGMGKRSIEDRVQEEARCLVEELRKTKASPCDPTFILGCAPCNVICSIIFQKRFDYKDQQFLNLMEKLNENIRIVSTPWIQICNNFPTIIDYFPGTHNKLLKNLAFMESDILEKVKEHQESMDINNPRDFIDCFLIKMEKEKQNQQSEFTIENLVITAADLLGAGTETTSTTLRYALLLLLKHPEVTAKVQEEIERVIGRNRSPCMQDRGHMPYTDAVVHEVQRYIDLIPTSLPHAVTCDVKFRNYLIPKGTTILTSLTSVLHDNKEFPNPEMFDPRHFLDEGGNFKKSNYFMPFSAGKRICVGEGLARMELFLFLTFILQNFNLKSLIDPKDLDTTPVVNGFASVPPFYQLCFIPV
Cytochrome P450 3A4, sequence (P08684 whole entry): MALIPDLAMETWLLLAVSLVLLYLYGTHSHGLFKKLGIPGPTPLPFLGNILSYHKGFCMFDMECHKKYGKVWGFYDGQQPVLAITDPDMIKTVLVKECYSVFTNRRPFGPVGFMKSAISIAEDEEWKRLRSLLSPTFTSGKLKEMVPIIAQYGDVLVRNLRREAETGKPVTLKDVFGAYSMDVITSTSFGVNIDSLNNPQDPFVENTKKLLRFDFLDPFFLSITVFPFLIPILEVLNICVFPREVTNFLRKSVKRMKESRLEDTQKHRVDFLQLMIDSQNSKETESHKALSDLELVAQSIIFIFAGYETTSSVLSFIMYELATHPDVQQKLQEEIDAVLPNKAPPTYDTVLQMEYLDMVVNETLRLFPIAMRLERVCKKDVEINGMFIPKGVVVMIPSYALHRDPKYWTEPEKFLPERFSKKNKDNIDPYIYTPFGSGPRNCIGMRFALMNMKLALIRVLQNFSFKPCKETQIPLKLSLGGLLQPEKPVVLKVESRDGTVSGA

## Cc1cc(S(=O)(=O)N[C@H](C)C2CCN(C)CC2)ccc1NC(=O)c1ccccc1C
[1]
  half-life: 43.5 h
[2]
  half-life: 2.63 h
[3]
  Vd: 4.4 L/kg
[4]
  Tmax: 0.5 h
[5]
  AUC(0-t): 13.6 µg·h/mL
MDA-MB-231 [6]
  Activity: Dose-Dependent Effect
Cytochrome P450 2C19
  IC50: > 10 µM
MDA-MB-231 [7]
  inhibition in vivo at 10 mg/kg: 73.8%
MDA-MB-231 [8]
  Activity: Dose-Dependent Effect
[9]
  fraction unbound: 0.358
[10]
  Tmax: 2.3 h
[11]
  clearance: 2.45 L/h/kg
[12]
  clearance: 1.87 L/h/kg
Cytochrome P450 2B6
  IC50: > 10 µM
[13]
  Vd: 2.2 L/kg
[14]
  bioavailability: 65%
[15]
  MED: 10 mg/kg
[16]
  IC50: > 150 µM
[17]
  AUC(0-t): 0.666 µg·h/mL
[18]
  solubility at 2 h: 254 µM (≈ 109 µg/mL)
[19]
  AUC(0-t): 28.9 µg·h/mL
[20]
  bioavailability: 55%
Cytochrome P450 3A4
  IC50: > 10 µM
Cytochrome P450 1A2
  IC50: > 10 µM
[21]
  AUC(0-t): 22.1 µg·h/mL
[22]
  Tmax: 3.3 h
[23]
  half-life: 2.5 h
[24]
  bioavailability: 66%
MDA-MB-231 [25]
  inhibition in vivo at 50 mg/kg: 55.6%
Cytochrome P450 2C8
  IC50: > 10 µM
[26]
  half-life: 0.433 h
[27]
  Papp B→A at 2 h, 10 µM: 172 nm/s
